Results from the NIST ThermoML archive (doi:10.1016/j.jct.2015.01.005).
Numbers after ± are expanded uncertainties.

Assay: molar heat capacity at saturation pressure
Conditions: Crystal 2, Small (less than 1 g) adiabatic calorimetry

`O[C@@H]1[C@@H](O)[C@@H]2OC[C@@H](O2)[C@H]1O` [1,6-anhydro-β-D-glucopyranose] gave a molar heat capacity (5.26 K) of 0.1543 ± 0.018 J/K/mol, a molar heat capacity (5.62 K) of 0.1754 ± 0.018 J/K/mol and a molar heat capacity (5.93 K) of 0.2008 ± 0.018 J/K/mol. The molar heat capacity (6.31 K) was 0.2396 ± 0.019 J/K/mol, the molar heat capacity (6.75 K) was 0.2955 ± 0.019 J/K/mol and the molar heat capacity (7.19 K) was 0.3641 ± 0.02 J/K/mol. It also gave a molar heat capacity (7.65 K) of 0.4465 ± 0.021 J/K/mol, a molar heat capacity (8.1 K) of 0.5445 ± 0.023 J/K/mol and a molar heat capacity (8.57 K) of 0.6608 ± 0.025 J/K/mol. For the same molecule, the molar heat capacity (9.04 K) was 0.7922 ± 0.027 J/K/mol, the molar heat capacity (9.51 K) was 0.9407 ± 0.029 J/K/mol and the molar heat capacity (9.99 K) was 1.112 ± 0.031 J/K/mol. The molar heat capacity (10.53 K) was 1.33 ± 0.035 J/K/mol, the molar heat capacity (11.15 K) was 1.603 ± 0.038 J/K/mol and the molar heat capacity (11.77 K) was 1.9 ± 0.042 J/K/mol. The molar heat capacity (12.4 K) was 2.236 ± 0.047 J/K/mol, the molar heat capacity (13.05 K) was 2.607 ± 0.051 J/K/mol and the molar heat capacity (13.7 K) was 3.009 ± 0.056 J/K/mol. The molar heat capacity (14.35 K) was 3.44 ± 0.06 J/K/mol, the molar heat capacity (15.01 K) was 3.908 ± 0.064 J/K/mol and the molar heat capacity (15.78 K) was 4.473 ± 0.069 J/K/mol. It also gave a molar heat capacity (16.65 K) of 5.151 ± 0.074 J/K/mol, a molar heat capacity (17.53 K) of 5.868 ± 0.079 J/K/mol and a molar heat capacity (18.42 K) of 6.609 ± 0.082 J/K/mol. The molar heat capacity (19.31 K) was 7.372 ± 0.086 J/K/mol, the molar heat capacity (20.21 K) was 8.174 ± 0.091 J/K/mol and the molar heat capacity (21.39 K) was 9.247 ± 0.098 J/K/mol. It also gave a molar heat capacity (22.86 K) of 10.63 ± 0.11 J/K/mol, a molar heat capacity (24.35 K) of 12.04 ± 0.11 J/K/mol and a molar heat capacity (25.84 K) of 13.46 ± 0.12 J/K/mol. For the same molecule, the molar heat capacity (27.08 K) was 14.64 ± 0.12 J/K/mol, the molar heat capacity (28.51 K) was 16.01 ± 0.13 J/K/mol and the molar heat capacity (30.04 K) was 17.43 ± 0.15 J/K/mol. For the same molecule, the molar heat capacity (31.72 K) was 19.01 ± 0.16 J/K/mol, the molar heat capacity (33.56 K) was 20.71 ± 0.17 J/K/mol and the molar heat capacity (35.41 K) was 22.39 ± 0.18 J/K/mol. It also gave a molar heat capacity (37.27 K) of 24 ± 0.19 J/K/mol, a molar heat capacity (39.13 K) of 25.62 ± 0.19 J/K/mol and a molar heat capacity (41.1 K) of 27.29 ± 0.2 J/K/mol. It also gave a molar heat capacity (43.17 K) of 29.02 ± 0.21 J/K/mol, a molar heat capacity (45.24 K) of 30.72 ± 0.22 J/K/mol and a molar heat capacity (47.32 K) of 32.39 ± 0.23 J/K/mol. The molar heat capacity (49.4 K) was 34.01 ± 0.24 J/K/mol, the molar heat capacity (51.49 K) was 35.61 ± 0.24 J/K/mol and the molar heat capacity (53.58 K) was 37.22 ± 0.25 J/K/mol. It also gave a molar heat capacity (55.67 K) of 38.75 ± 0.26 J/K/mol, a molar heat capacity (57.78 K) of 40.27 ± 0.27 J/K/mol and a molar heat capacity (59.89 K) of 41.77 ± 0.28 J/K/mol. The molar heat capacity (62 K) was 43.24 ± 0.28 J/K/mol, the molar heat capacity (64.11 K) was 44.7 ± 0.29 J/K/mol and the molar heat capacity (66.22 K) was 46.15 ± 0.3 J/K/mol. It also gave a molar heat capacity (68.34 K) of 47.58 ± 0.31 J/K/mol, a molar heat capacity (70.46 K) of 49 ± 0.32 J/K/mol and a molar heat capacity (72.68 K) of 50.47 ± 0.32 J/K/mol. For the same molecule, the molar heat capacity (75.01 K) was 51.98 ± 0.33 J/K/mol, the molar heat capacity (77.35 K) was 53.49 ± 0.33 J/K/mol and the molar heat capacity (78.72 K) was 54.4 ± 0.34 J/K/mol. It also gave a molar heat capacity (79.68 K) of 54.97 ± 0.34 J/K/mol, a molar heat capacity (80.68 K) of 55.63 ± 0.35 J/K/mol and a molar heat capacity (80.76 K) of 55.68 ± 0.35 J/K/mol. It also gave a molar heat capacity (82.03 K) of 56.47 ± 0.36 J/K/mol, a molar heat capacity (82.6 K) of 56.8 ± 0.36 J/K/mol and a molar heat capacity (82.68 K) of 56.86 ± 0.36 J/K/mol. For the same molecule, the molar heat capacity (84.52 K) was 57.99 ± 0.36 J/K/mol, the molar heat capacity (84.6 K) was 58.06 ± 0.36 J/K/mol and the molar heat capacity (86.44 K) was 59.2 ± 0.37 J/K/mol. For the same molecule, the molar heat capacity (86.52 K) was 59.23 ± 0.37 J/K/mol, the molar heat capacity (88.37 K) was 60.4 ± 0.37 J/K/mol and the molar heat capacity (88.45 K) was 60.45 ± 0.37 J/K/mol. The molar heat capacity (90.29 K) was 61.6 ± 0.4 J/K/mol, the molar heat capacity (90.37 K) was 61.65 ± 0.4 J/K/mol and the molar heat capacity (92.23 K) was 62.79 ± 0.41 J/K/mol. For the same molecule, the molar heat capacity (92.3 K) was 62.82 ± 0.41 J/K/mol, the molar heat capacity (94.16 K) was 63.97 ± 0.41 J/K/mol and the molar heat capacity (94.23 K) was 64.01 ± 0.41 J/K/mol. The molar heat capacity (96.1 K) was 65.16 ± 0.42 J/K/mol, the molar heat capacity (96.17 K) was 65.21 ± 0.42 J/K/mol and the molar heat capacity (98.04 K) was 66.35 ± 0.43 J/K/mol. The molar heat capacity (98.11 K) was 66.41 ± 0.43 J/K/mol, the molar heat capacity (99.98 K) was 67.6 ± 0.43 J/K/mol and the molar heat capacity (100.05 K) was 67.69 ± 0.43 J/K/mol. The molar heat capacity (101.92 K) was 69.02 ± 0.44 J/K/mol, the molar heat capacity (101.99 K) was 69.12 ± 0.44 J/K/mol and the molar heat capacity (103.87 K) was 70.46 ± 0.44 J/K/mol. It also gave a molar heat capacity (103.93 K) of 70.5 ± 0.44 J/K/mol, a molar heat capacity (105.82 K) of 71.75 ± 0.45 J/K/mol and a molar heat capacity (105.88 K) of 71.76 ± 0.45 J/K/mol. It also gave a molar heat capacity (107.77 K) of 72.94 ± 0.45 J/K/mol, a molar heat capacity (107.83 K) of 72.96 ± 0.45 J/K/mol and a molar heat capacity (109.73 K) of 74.07 ± 0.46 J/K/mol. It also gave a molar heat capacity (109.79 K) of 74.13 ± 0.46 J/K/mol, a molar heat capacity (111.69 K) of 75.2 ± 0.46 J/K/mol and a molar heat capacity (111.75 K) of 75.25 ± 0.46 J/K/mol. It also gave a molar heat capacity (113.65 K) of 76.35 ± 0.47 J/K/mol, a molar heat capacity (113.71 K) of 76.37 ± 0.47 J/K/mol and a molar heat capacity (115.61 K) of 77.45 ± 0.48 J/K/mol. The molar heat capacity (115.67 K) was 77.49 ± 0.48 J/K/mol, the molar heat capacity (117.58 K) was 78.55 ± 0.48 J/K/mol and the molar heat capacity (117.64 K) was 78.6 ± 0.48 J/K/mol. For the same molecule, the molar heat capacity (119.55 K) was 79.66 ± 0.49 J/K/mol, the molar heat capacity (119.61 K) was 79.69 ± 0.49 J/K/mol and the molar heat capacity (121.58 K) was 80.81 ± 0.49 J/K/mol. It also gave a molar heat capacity (123.55 K) of 81.91 ± 0.5 J/K/mol, a molar heat capacity (125.53 K) of 83.02 ± 0.5 J/K/mol and a molar heat capacity (127.51 K) of 84.1 ± 0.51 J/K/mol. The molar heat capacity (129.49 K) was 85.22 ± 0.51 J/K/mol, the molar heat capacity (131.47 K) was 86.32 ± 0.52 J/K/mol and the molar heat capacity (133.45 K) was 87.41 ± 0.52 J/K/mol. It also gave a molar heat capacity (135.44 K) of 88.53 ± 0.53 J/K/mol, a molar heat capacity (137.43 K) of 89.66 ± 0.53 J/K/mol and a molar heat capacity (139.41 K) of 90.74 ± 0.54 J/K/mol. For the same molecule, the molar heat capacity (141.41 K) was 91.84 ± 0.55 J/K/mol, the molar heat capacity (143.4 K) was 92.95 ± 0.55 J/K/mol and the molar heat capacity (145.4 K) was 94.05 ± 0.56 J/K/mol. It also gave a molar heat capacity (147.39 K) of 95.15 ± 0.56 J/K/mol, a molar heat capacity (149.39 K) of 96.28 ± 0.57 J/K/mol and a molar heat capacity (151.39 K) of 97.39 ± 0.57 J/K/mol. For the same molecule, the molar heat capacity (153.39 K) was 98.5 ± 0.57 J/K/mol, the molar heat capacity (155.4 K) was 99.63 ± 0.58 J/K/mol and the molar heat capacity (157.4 K) was 100.7 ± 0.6 J/K/mol. For the same molecule, the molar heat capacity (159.41 K) was 101.8 ± 0.6 J/K/mol, the molar heat capacity (161.42 K) was 103 ± 0.6 J/K/mol and the molar heat capacity (163.43 K) was 104.1 ± 0.6 J/K/mol. The molar heat capacity (165.44 K) was 105.2 ± 0.6 J/K/mol, the molar heat capacity (167.46 K) was 106.4 ± 0.6 J/K/mol and the molar heat capacity (169.47 K) was 107.5 ± 0.6 J/K/mol. It also gave a molar heat capacity (171.49 K) of 108.6 ± 0.6 J/K/mol, a molar heat capacity (173.51 K) of 109.8 ± 0.6 J/K/mol and a molar heat capacity (175.53 K) of 110.9 ± 0.6 J/K/mol. For the same molecule, the molar heat capacity (177.54 K) was 112 ± 0.6 J/K/mol, the molar heat capacity (179.56 K) was 113.2 ± 0.7 J/K/mol and the molar heat capacity (181.59 K) was 114.4 ± 0.7 J/K/mol. The molar heat capacity (183.61 K) was 115.5 ± 0.7 J/K/mol, the molar heat capacity (185.63 K) was 116.7 ± 0.7 J/K/mol and the molar heat capacity (187.66 K) was 117.8 ± 0.7 J/K/mol. For the same molecule, the molar heat capacity (189.68 K) was 119 ± 0.7 J/K/mol, the molar heat capacity (191.71 K) was 120.2 ± 0.7 J/K/mol and the molar heat capacity (193.74 K) was 121.4 ± 0.7 J/K/mol.
